Our source for the IC50 values is patent US11524966B1 (Valo Early Discovery, Inc., priority 2017, dated 2022).

Like-named read-outs stand apart in the source and are kept apart here.

The target of this experiment is T1, USP25 (USP25-His6, Boston Biochem E-546) (Homo sapiens, UniProt Q9UHP3).
T1 construct: His6; purchased Boston Biochem E-546
T1 sequence (Q9UHP3 1-1055): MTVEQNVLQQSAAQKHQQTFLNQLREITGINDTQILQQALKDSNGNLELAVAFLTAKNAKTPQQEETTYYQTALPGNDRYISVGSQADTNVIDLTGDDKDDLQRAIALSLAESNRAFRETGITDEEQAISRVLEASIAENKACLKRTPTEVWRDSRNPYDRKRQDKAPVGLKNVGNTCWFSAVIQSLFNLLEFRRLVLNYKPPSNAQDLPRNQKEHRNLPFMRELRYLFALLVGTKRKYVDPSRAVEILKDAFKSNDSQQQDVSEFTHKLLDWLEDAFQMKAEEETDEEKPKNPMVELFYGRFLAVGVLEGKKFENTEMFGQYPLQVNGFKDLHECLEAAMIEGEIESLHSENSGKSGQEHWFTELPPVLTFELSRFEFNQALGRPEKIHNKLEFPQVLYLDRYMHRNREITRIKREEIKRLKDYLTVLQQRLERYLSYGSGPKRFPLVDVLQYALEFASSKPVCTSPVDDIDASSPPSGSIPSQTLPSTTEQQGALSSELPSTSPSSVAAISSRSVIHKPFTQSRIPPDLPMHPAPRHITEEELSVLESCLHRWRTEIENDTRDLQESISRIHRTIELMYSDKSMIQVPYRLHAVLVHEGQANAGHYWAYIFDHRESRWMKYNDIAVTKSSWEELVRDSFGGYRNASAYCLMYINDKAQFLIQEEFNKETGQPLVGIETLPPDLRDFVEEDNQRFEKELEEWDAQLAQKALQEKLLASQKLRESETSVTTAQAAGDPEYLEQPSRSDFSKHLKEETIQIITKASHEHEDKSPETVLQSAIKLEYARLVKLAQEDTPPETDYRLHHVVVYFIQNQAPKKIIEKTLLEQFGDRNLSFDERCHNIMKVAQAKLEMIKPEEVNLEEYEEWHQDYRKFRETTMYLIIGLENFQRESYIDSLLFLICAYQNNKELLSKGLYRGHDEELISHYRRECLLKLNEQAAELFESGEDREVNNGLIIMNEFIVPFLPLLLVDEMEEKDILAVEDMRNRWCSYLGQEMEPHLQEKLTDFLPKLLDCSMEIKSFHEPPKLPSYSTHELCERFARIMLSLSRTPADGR
Kind of experiment: Ubiquitin-Rhodamine 110 Assay for USP25 Activity, Example A-2. It is filed as biochemical. To be noted: Ubiquitin-Rhodamine 110 assay, read-out: USP25 A-2 IC50 range. A digest of the protocol:
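Inhibition is quantified as IC50 by 4-parameter fit of fluorescence (485/535 nm) from Ub-Rh110 hydrolysis. Enzyme USP25-His6 at 75 pM with 30 min compound preincubation, then 25 nM substrate for 45 min at room temperature in pH 8.0 Tris buffer containing BME.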

As usually defined, the IC50 is the concentration that inhibits the measured activity by half. With `Cc1cnc2c(N)c(C(=O)N[C@H]3CCc4cc(N5CC6CCC(C5)N6)cc(F)c4C3)sc2n1` (single isomer, unassigned) [Example 11-13], under “Example A-2”, the IC50 is > 2000 nM.

Consider `Cc1cnc2c(N)c(C(=O)N[C@@H]3CCc4cc(N5CC6CCC(C5)N6)cc(F)c4C3)sc2n1` (single isomer, unassigned) [Example 11-14], for which the IC50 (Example A-2) was 200 to 2000 nM.

For the compound `Cc1ccc2c(N)c(C(=O)N[C@@H]3COc4cc(N5CCNCC5)ccc4[C@@H]3C)sc2n1` (single isomer, unassigned) [Example 11-18], the IC50 (Example A-2) is > 2000 nM.

On to `CCn1ccc2cc(C(=O)N[C@@H]3CCc4cc(N5CC6CCC(C5)N6)ccc4C3)nnc21` (single isomer, unassigned) [Example 11-23], for which, where the note is “Example A-2”, the 50% inhibitory concentration (IC50) is > 2000 nM.

For the compound `CCn1ccc2cc(C(=O)N[C@H]3CCc4cc(N5CC6CCC(C5)N6)ccc4C3)nnc21` (single isomer, unassigned) [Example 11-24], the IC50 (Example A-2) is > 2000 nM.

Turning to `Cc1ccc2c(N)c(C(=O)N[C@H]3CCc4cc(N5C6CNCC5C6)ccc4C3)sc2n1` (single isomer, unassigned) [Example 11-35], the IC50 (format Example A-2) is 200 to 2000 nM.

Regarding `Cc1ccc2c(N)c(C(=O)N[C@@H]3CCc4cc(N5C6CNCC5C6)ccc4C3)sc2n1` (single isomer, unassigned) [Example 11-36], the IC50 (format Example A-2) is 200 to 2000 nM.

Regarding `Cc1nc2sc(C(=O)N[C@H]3CCc4cc(N5CC6CCC(C5)N6)ccc4C3)c(N)c2s1` (single isomer, unassigned) [Example 12-1], the IC50 (format Example A-2) was > 2000 nM.

Take `Cc1ccc2c(N)c(C(=O)N[C@H]3COc4c(F)c(N5CC6CCC(C5)N6)cc(F)c4C3)sc2n1` (single isomer, unassigned) [Example 13-1]: the IC50 (format Example A-2) was in the range of 50 to 200 nM.

On to `Cc1ccc2c(N)c(C(=O)N[C@@H]3COc4c(F)c(N5CC6CCC(C5)N6)cc(F)c4C3)sc2n1` (single isomer, unassigned) [Example 13-2], for which, where the note is “format Example A-2”, the IC50 was > 2000 nM.

As for `Cc1ccc2c(N)c(C(=O)N[C@@H]3COc4cc(N5CCNCC5)c(Cl)cc4C3)sc2n1` (single isomer, unassigned) [Example 13-6], the IC50 (format Example A-2) lay in the range of 50 to 200 nM.

`Cc1nc2sc(C(=O)N[C@@H]3CCc4c(C#N)c(N5CC6CCC(C5)N6)cc(F)c4C3)c(N)c2s1` (single isomer, unassigned) [Example 14-22]: for the setting “format Example A-2”, the IC50 was > 2000 nM.

Turning to `Cc1ccc2c(N)c(C(=O)N[C@@H]3CCc4cc(N5CCNCC5)cnc4C3)sc2n1` (single isomer, unassigned) [Example 15-1], the IC50 (format Example A-2) was > 2000 nM.

Turning to `Cc1ccc2c(N)c(C(=O)N[C@H]3CCc4cc(N5CCNCC5)cnc4C3)sc2n1` (single isomer, unassigned) [Example 15-2], the IC50 (format Example A-2) is > 2000 nM.

As for `Cc1ccc2c(N)c(C(=O)N[C@@H]3CCc4c(ccc(N5CC6CCC(C5)N6)c4F)C3)sc2n1` (single isomer, unassigned) [Example 21-1], for the setting “format Example A-2”, the concentration for half-maximal inhibition (IC50) is > 2000 nM.

Take `Cc1ccc2c(N)c(C(=O)N[C@H]3CCc4c(ccc(N5CC6CCC(C5)N6)c4F)C3)sc2n1` (single isomer, unassigned) [Example 21-2]: the IC50 (format Example A-2) lay within 200 to 2000 nM.

Consider `Cc1ccc2c(N)c(C(=O)N[C@@H]3CCc4cc(N5CC6CCC(C5)N6)c(F)cc4C3)sc2n1` (single isomer, unassigned) [Example 21-3], for which, for the setting “format Example A-2”, the IC50 lay within 50 to 200 nM.

As for `Cc1ccc2c(N)c(C(=O)N[C@H]3CCc4cc(N5CC6CCC(C5)N6)c(F)cc4C3)sc2n1` (single isomer, unassigned) [Example 21-4], the IC50 (format Example A-2) is > 2000 nM.

For the compound `Cc1ccc2c(N)c(C(=O)N[C@@H]3CCc4c(ccc(N5CCNCC5)c4F)C3)sc2n1` (single isomer, unassigned) [Example 21-5], the IC50 (format Example A-2) was in the range of 50 to 200 nM.

Consider `Cc1ccc2c(N)c(C(=O)N[C@H]3CCc4c(ccc(N5CCNCC5)c4F)C3)sc2n1` (single isomer, unassigned) [Example 21-6], for which the IC50 (format Example A-2) was > 2000 nM.

Turning to `Cc1ccc2c(N)c(C(=O)N[C@@H]3CCc4cc(N5CCNCC5)c(F)cc4C3)sc2n1` (single isomer, unassigned) [Example 21-7], the IC50 (format Example A-2) is 200 to 2000 nM.

With `Cc1ccc2c(N)c(C(=O)N[C@H]3CCc4cc(N5CCNCC5)c(F)cc4C3)sc2n1` (single isomer, unassigned) [Example 21-8], the IC50 (format Example A-2) is > 2000 nM.

As to `Cc1ccc2c(N)c(C(=O)N[C@H]3CCc4c(F)c(N5CCNCC5)cc(F)c4C3)sc2n1` (single isomer, unassigned) [Example 22-1], the IC50 (format Example A-2) is > 2000 nM.

For the compound `Cc1ccc2c(N)c(C(=O)N[C@@H]3CCc4c(F)c(N5CCNCC5)cc(F)c4C3)sc2n1` (single isomer, unassigned) [Example 22-2], where the note is “format Example A-2”, the IC50 was in the range of 50 to 200 nM.

In the case of `Cc1ccc2c(N)c(C(=O)N[C@H]3CCc4c(F)c(N5CC6CNCC(C5)O6)cc(F)c4C3)sc2n1` (single isomer, unassigned) [Example 22-3], the IC50 (format Example A-2) was > 2000 nM.

Turning to `Cc1ccc2c(N)c(C(=O)N[C@@H]3CCc4c(F)c(N5CC6CNCC(C5)O6)cc(F)c4C3)sc2n1` (single isomer, unassigned) [Example 22-4], where the note is “format Example A-2”, the IC50 is 1 to 50 nM.

In the case of `Cc1ccc2c(N)c(C(=O)N[C@@H]3CCc4c(F)c(N5CC6CCC(C5)N6)cc(F)c4C3)sc2n1` (single isomer, unassigned) [Example 22-6], the IC50 (format Example A-2) is > 2000 nM.

With `CO[C@H]1CN(c2ccc3c(n2)CC[C@H](NC(=O)c2sc4nc(C)cnc4c2N)C3)C[C@@H]1N` (single isomer, unassigned) [Example 23-1], under “format Example A-2”, the IC50 is > 2000 nM.

In the case of `CO[C@H]1CN(c2ccc3c(n2)CC[C@@H](NC(=O)c2sc4nc(C)cnc4c2N)C3)C[C@@H]1N` (single isomer, unassigned) [Example 23-2], the IC50 (format Example A-2) was > 2000 nM.

For `Cc1ccc2c(N)c(C(=O)N[C@H]3COc4cc(C5(F)CCNCC5)ccc4C3)sc2n1` [Example 8-1, (R)-3-Amino-N-(7-(4-fluoropiperidin-4-yl)chroman-3-yl)-6-methylthieno[2,3-b]pyridine-2-carboxamide], the IC50 (Example A-2) is 50 to 200 nM.

As for `Cc1ccc2c(N)c(C(=O)N[C@H]3COc4cc(N5CCNCC5)cc(F)c4C3)sc2n1` [Example 10-1, (R)-3-amino-N-(5-fluoro-7-(piperazin-1-yl)chroman-3-yl)-6-methylthieno[2,3-b]pyridine-2-carboxamide], the IC50 (Example A-2) was 50 to 200 nM.

With `CO[C@@H]1CN(c2cc(F)c3c(c2)OC[C@H](NC(=O)c2sc4nc(C)ccc4c2N)C3)C[C@H]1N` [Example 10-2, 3-amino-N-((R)-7-((3R,4R)-3-amino-4-methoxypyrrolidin-1-yl)-5-fluorochroman-3-yl)-6-methylthieno[2,3-b]pyridine-2-carboxamide], the IC50 (Example A-2) is 200 to 2000 nM.

With `[2H]C1([2H])NC([2H])([2H])C([2H])([2H])N(c2cc(F)c3c(c2)OC[C@H](NC(=O)c2sc4nc(C)ccc4c2N)C3)C1([2H])[2H]` [Example 10-4, (R)-3-amino-N-(5-fluoro-7-(piperazin-l-yl-2,2,3,3,5,5,6,6-d8)chroman-3-yl)-6-methylthieno[2,3-b]pyridine-2-carboxamide], the IC50 (Example A-2) is 50 to 200 nM.

For the compound `Cc1ccc2c(N)c(C(=O)N[C@@H]3COc4cc(N5CCNCC5)cc(F)c4C3)sc2n1` [Example 10-5, (S)-3-amino-N-(5-fluoro-7-(piperazin-1-yl)chroman-3-yl)-6-methylthieno[2,3-b]pyridine-2-carboxamide], the IC50 (Example A-2) was > 2000 nM.

In the case of `Cc1ccc2c(N)c(C(=O)N[C@H]3COc4cc(N5CC6CNCC(C5)O6)cc(F)c4C3)sc2n1` [Example 10-6, N-((3R)-7-(9-oxa-3,7-diazabicyclo[3.3.1]nonan-3-yl)-5-fluorochroman-3-yl)-3-amino-6-methylthieno[2,3-b]pyridine-2-carboxamide], for the setting “Example A-2”, the IC50 lay within 50 to 200 nM.

As to `Cc1cc(C)c2c(N)c(C(=O)N[C@H]3COc4cc(N5CC6CC(C5)N6)cc(F)c4C3)sc2n1` [Example 10-7, N-((3R)-7-(3,6-diazabicyclo[3.1.1]heptan-3-yl)-5-fluorochroman-3-yl)-3-amino-4,6-dimethylthieno[2,3-b]pyridine-2-carboxamide], where the note is “Example A-2”, the IC50 is 50 to 200 nM.
